According to PubChem BioAssay (NCI):
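Compound exposure: 48 hours, 5 concentrations, 96-well plates. GI50: concentration for 50% inhibition of growth. TGI denotes the concentration required for complete inhibition of growth.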

Assays:
Assay in all cases: NCI anticancer screen, dose series, 48 h
[1] = test system: U251 CNS
[2] = test system: CAKI-1 renal
[3] = test system: SK-MEL-28 melanoma
[4] = test system: SF-539 CNS
[5] = test system: NCI-H23 lung
[6] = test system: NCI-H522 lung
[7] = test system: SF-295 CNS
[8] = test system: M14 melanoma
[9] = test system: SF-268 CNS
[10] = test system: NCI-H226 lung
[11] = test system: HCT-15 colon
[12] = test system: MALME-3M melanoma
[13] = test system: A549 NSCLC
[14] = test system: OVCAR-3 ovarian
[15] = test system: HT29 colon
[16] = test system: UO-31 renal
[17] = test system: BT-549 breast
[18] = test system: HOP-62 NSCLC
[19] = test system: EKVX NSCLC
[20] = test system: COLO 205 colon
[21] = test system: PC-3 prostate
[22] = test system: HOP-92 NSCLC
[23] = test system: HCC-2998 colon
[24] = test system: ACHN renal
[25] = test system: SK-MEL-2 melanoma
[26] = test system: NCI-H460 lung
[27] = test system: MOLT-4 leukemia
[28] = test system: OVCAR-4 ovarian
[29] = test system: UACC-257 melanoma
[30] = test system: 786-0 renal
[31] = test system: UACC-62 melanoma
[32] = test system: K-562 leukemia
[33] = test system: NCI/ADR-RES ovarian
[34] = test system: SNB-19 CNS
[35] = test system: CCRF-CEM leukemia
[36] = test system: RXF 393 renal
[37] = test system: DU-145 prostate
[38] = test system: IGROV1 ovarian
[39] = test system: OVCAR-8 ovarian
[40] = test system: TK-10 renal
[41] = test system: SW-620 colon
[42] = test system: A498 renal
[43] = test system: SN12C renal
[44] = test system: HCT-116 colon
[45] = test system: T-47D breast
[46] = test system: HL-60(TB) leukemia
[47] = test system: SK-OV-3 ovarian
[48] = test system: KM12 colon
[49] = test system: LOX IMVI melanoma
[50] = test system: HS 578T breast
[51] = test system: RPMI-8226 leukemia
[52] = test system: MDA-MB-435
[53] = test system: MDA-MB-231 breast
[54] = test system: OVCAR-5 ovarian
[55] = test system: SNB-75 CNS
[56] = test system: MCF7 breast
[57] = test system: SK-MEL-5 melanoma
[58] = test system: SR leukemia

CN1CCN(Cc2ccc(NC(=O)c3cncc(C#Cc4c(N)ncc5ccc(C#N)cc45)c3)cc2C(F)(F)F)CC1
GI50 [1]: 864 nM
TGI [1]: 1670 nM
GI50 [2]: 943 nM
TGI [2]: 1930 nM
GI50 [3]: 350 nM
TGI [3]: 1100 nM
GI50 [4]: 760 nM
TGI [4]: 3070 nM
GI50 [5]: 1020 nM
TGI [5]: 3600 nM
GI50 [6]: 748 nM
TGI [6]: 2010 nM
GI50 [7]: 8670 nM
TGI [7]: 18000 nM
GI50 [8]: 66.8 nM
TGI [8]: 729 nM
GI50 [9]: 910 nM
TGI [9]: 1890 nM
GI50 [10]: 294 nM
TGI [10]: 14500 nM
GI50 [11]: 827 nM
TGI [11]: 1720 nM
GI50 [12]: 47.7 nM
TGI [12]: 331 nM
GI50 [13]: 867 nM
TGI [13]: 1680 nM
GI50 [14]: 3610 nM
TGI [14]: 14300 nM
GI50 [15]: 79 nM
TGI [15]: 1170 nM
GI50 [16]: 971 nM
TGI [16]: 1730 nM
GI50 [17]: 6460 nM
TGI [17]: 14800 nM
GI50 [18]: 849 nM
TGI [18]: 1920 nM
GI50 [19]: 791 nM
TGI [19]: 1570 nM
GI50 [20]: 121 nM
TGI [20]: 50000 nM
GI50 [21]: 891 nM
TGI [21]: 1750 nM
GI50 [22]: 412 nM
TGI [22]: 6350 nM
GI50 [23]: 1720 nM
TGI [23]: 5030 nM
GI50 [24]: 717 nM
TGI [24]: 1390 nM
GI50 [25]: 2440 nM
TGI [25]: 9560 nM
GI50 [26]: 878 nM
TGI [26]: 1770 nM
GI50 [27]: 801 nM
TGI [27]: 2960 nM
GI50 [28]: 558 nM
TGI [28]: 1370 nM
GI50 [29]: 483 nM
TGI [29]: 1780 nM
GI50 [30]: 901 nM
TGI [30]: 1710 nM
GI50 [31]: 668 nM
TGI [31]: 1420 nM
GI50 [32]: 5 nM
TGI [32]: 266 nM
GI50 [33]: 1110 nM
TGI [33]: 2630 nM
GI50 [34]: 952 nM
TGI [34]: 1790 nM
GI50 [35]: 1040 nM
TGI [35]: 3080 nM
GI50 [36]: 1080 nM
TGI [36]: 2880 nM
GI50 [37]: 829 nM
TGI [37]: 1590 nM
GI50 [38]: 816 nM
TGI [38]: 1990 nM
GI50 [39]: 926 nM
TGI [39]: 1870 nM
GI50 [40]: 969 nM
TGI [40]: 1870 nM
GI50 [41]: 696 nM
TGI [41]: 1530 nM
GI50 [42]: 1070 nM
TGI [42]: 6350 nM
GI50 [43]: 2970 nM
TGI [43]: 7350 nM
GI50 [44]: 700 nM
TGI [44]: 1440 nM
GI50 [45]: 1230 nM
TGI [45]: 5850 nM
GI50 [46]: 1400 nM
TGI [46]: 50000 nM
GI50 [47]: 8270 nM
TGI [47]: 17500 nM
GI50 [48]: 5 nM
TGI [48]: 791 nM
GI50 [49]: 290 nM
TGI [49]: 1070 nM
GI50 [50]: 741 nM
TGI [50]: 9450 nM
GI50 [51]: 1010 nM
TGI [51]: 2470 nM
GI50 [52]: 333 nM
TGI [52]: 1070 nM
GI50 [53]: 525 nM
TGI [53]: 1230 nM
GI50 [54]: 813 nM
TGI [54]: 1610 nM
GI50 [55]: 2290 nM
TGI [55]: 4540 nM
GI50 [56]: 694 nM
TGI [56]: 1590 nM
GI50 [57]: 785 nM
TGI [57]: 1540 nM
GI50 [58]: 547 nM
TGI [58]: 2570 nM
